# Test system: 772245-204-R-J1-PDC complex spheroid growth
# Test: Anticancer human tumor 772245-204-R-J1-PDC patient-derived rhabdomyosarcoma cell line growth inhibition [Asc]
# Conditions: for IC50: curve of first compound; for viability, T/C: stronger effect = lower value
# Procedure, shortened: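 Tumor cells were grown as multicellular spheroids with stromal HUVEC and mesenchymal stem cells and treated singly or in combination. Concentrations fell in half-log steps from the clinical Cmax, or from 10 microM where none was known.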
# 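Also: compound exposure lasted seven days.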
# 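For viability, T/C in this document: 100% = DMSO vehicle control viability.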
structure (smiles),measurement,setting,value
Cc1nc(N2CCC3(CC2)COC(C)C3N)c(CO)nc1Sc1ccnc(N)c1Cl (configuration not stated) + CCN1C(C(=O)NC23CCC(C(=O)O)(CC2)CC3)C(c2cccc(Cl)c2F)C2(C(=O)Nc3cc(Cl)ccc32)C12CCCCC2,IC50,second compound 0.03 µM,> 3 µM
same,IC50,second compound 0.0949 µM,> 3 µM
same,IC50,second compound 0.3 µM,> 3 µM
same,IC50,second compound 0.949 µM,> 3 µM
same,IC50,second compound 3 µM,2.74 µM
same,"viability, T/C","second compound 0.03 µM, first compound 0.00949 µM",94.9%
same,"viability, T/C","second compound 0.03 µM, first compound 0.03 µM",120%
same,"viability, T/C","second compound 0.03 µM, first compound 0.0949 µM",108%
same,"viability, T/C","second compound 0.03 µM, first compound 0.3 µM",102%
same,"viability, T/C","second compound 0.03 µM, first compound 0.949 µM",76.9%
same,"viability, T/C","second compound 0.03 µM, first compound 3 µM",56.9%
same,"viability, T/C","second compound 0.0949 µM, first compound 0.00949 µM",97.1%
same,"viability, T/C","second compound 0.0949 µM, first compound 0.03 µM",100%
same,"viability, T/C","second compound 0.0949 µM, first compound 0.0949 µM",119%
same,"viability, T/C","second compound 0.0949 µM, first compound 0.3 µM",93.3%
same,"viability, T/C","second compound 0.0949 µM, first compound 0.949 µM",84.1%
same,"viability, T/C","second compound 0.0949 µM, first compound 3 µM",51%
same,"viability, T/C","second compound 0.3 µM, first compound 0.00949 µM",111%
same,"viability, T/C","second compound 0.3 µM, first compound 0.03 µM",110%
same,"viability, T/C","second compound 0.3 µM, first compound 0.0949 µM",88.3%
same,"viability, T/C","second compound 0.3 µM, first compound 0.3 µM",85.3%
same,"viability, T/C","second compound 0.3 µM, first compound 0.949 µM",77.8%
same,"viability, T/C","second compound 0.3 µM, first compound 3 µM",52%
same,"viability, T/C","second compound 0.949 µM, first compound 0.00949 µM",113%
same,"viability, T/C","second compound 0.949 µM, first compound 0.03 µM",109%
same,"viability, T/C","second compound 0.949 µM, first compound 0.0949 µM",109%
same,"viability, T/C","second compound 0.949 µM, first compound 0.3 µM",97.5%
same,"viability, T/C","second compound 0.949 µM, first compound 0.949 µM",75.7%
same,"viability, T/C","second compound 0.949 µM, first compound 3 µM",52%
same,"viability, T/C","second compound 3 µM, first compound 0.00949 µM",75.6%
same,"viability, T/C","second compound 3 µM, first compound 0.03 µM",92.5%
same,"viability, T/C","second compound 3 µM, first compound 0.0949 µM",85.7%
same,"viability, T/C","second compound 3 µM, first compound 0.3 µM",71.9%
same,"viability, T/C","second compound 3 µM, first compound 0.949 µM",62.6%
same,"viability, T/C","second compound 3 µM, first compound 3 µM",48.5%
C#Cc1c(F)ccc2cc(O)cc(-c3ncc4c(N5CC6CCC(C5)N6)nc(OCC56CCCN5CC(F)C6)nc4c3F)c12 (configuration not stated) + CNC(C)C(=O)NC1CN(S(=O)(=O)c2cccc(S(=O)(=O)N3CCC4CCC(C(=O)NC(c5ccccc5)c5ccccc5)N4C(=O)C(NC(=O)C(C)NC)C3)c2)CCC2CCC(C(=O)NC(c3ccccc3)c3ccccc3)N2C1=O,IC50,second compound 0.00316 µM,> 10 µM
same,IC50,second compound 0.01 µM,> 10 µM
same,IC50,second compound 0.0316 µM,> 10 µM
same,IC50,second compound 0.1 µM,> 10 µM
same,IC50,second compound 0.316 µM,> 10 µM
same,IC50,second compound 1 µM,> 10 µM
same,"viability, T/C","second compound 0.00316 µM, first compound 0.0316 µM",104%
same,"viability, T/C","second compound 0.00316 µM, first compound 0.1 µM",104%
same,"viability, T/C","second compound 0.00316 µM, first compound 0.316 µM",92.4%
same,"viability, T/C","second compound 0.00316 µM, first compound 1 µM",102%
same,"viability, T/C","second compound 0.00316 µM, first compound 3.16 µM",89.2%
same,"viability, T/C","second compound 0.00316 µM, first compound 10 µM",79%
same,"viability, T/C","second compound 0.01 µM, first compound 0.0316 µM",101%
same,"viability, T/C","second compound 0.01 µM, first compound 0.1 µM",88%
same,"viability, T/C","second compound 0.01 µM, first compound 0.316 µM",91%
same,"viability, T/C","second compound 0.01 µM, first compound 1 µM",104%
same,"viability, T/C","second compound 0.01 µM, first compound 3.16 µM",86.5%
same,"viability, T/C","second compound 0.01 µM, first compound 10 µM",64.1%
same,"viability, T/C","second compound 0.0316 µM, first compound 0.0316 µM",92.7%
same,"viability, T/C","second compound 0.0316 µM, first compound 0.1 µM",93.8%
same,"viability, T/C","second compound 0.0316 µM, first compound 0.316 µM",89.6%
same,"viability, T/C","second compound 0.0316 µM, first compound 1 µM",101%
same,"viability, T/C","second compound 0.0316 µM, first compound 3.16 µM",107%
same,"viability, T/C","second compound 0.0316 µM, first compound 10 µM",71.8%
same,"viability, T/C","second compound 0.1 µM, first compound 0.0316 µM",100%
same,"viability, T/C","second compound 0.1 µM, first compound 0.1 µM",93.4%
same,"viability, T/C","second compound 0.1 µM, first compound 0.316 µM",95.8%
same,"viability, T/C","second compound 0.1 µM, first compound 1 µM",89%
same,"viability, T/C","second compound 0.1 µM, first compound 3.16 µM",101%
same,"viability, T/C","second compound 0.1 µM, first compound 10 µM",67.8%
same,"viability, T/C","second compound 0.316 µM, first compound 0.0316 µM",94.2%
same,"viability, T/C","second compound 0.316 µM, first compound 0.1 µM",67.8%
same,"viability, T/C","second compound 0.316 µM, first compound 0.316 µM",82%
same,"viability, T/C","second compound 0.316 µM, first compound 1 µM",96.5%
same,"viability, T/C","second compound 0.316 µM, first compound 3.16 µM",92.4%
same,"viability, T/C","second compound 0.316 µM, first compound 10 µM",68%
same,"viability, T/C","second compound 1 µM, first compound 0.0316 µM",78.9%
same,"viability, T/C","second compound 1 µM, first compound 0.1 µM",96.2%
same,"viability, T/C","second compound 1 µM, first compound 0.316 µM",93.3%
same,"viability, T/C","second compound 1 µM, first compound 1 µM",83%
same,"viability, T/C","second compound 1 µM, first compound 3.16 µM",80%
same,"viability, T/C","second compound 1 µM, first compound 10 µM",63.9%
